Data from ChEMBL document CHEMBL1201862, “PubChem BioAssay data set” (2004).
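Test compounds were applied to cells in 96-well plates for 48 hours at 5 doses. GI50: concentration for 50% inhibition of growth.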 Calls of active or inactive are those of the source. Rule as the data show it: active = GI50 up to about 1.1 µM and inactive = higher.

Assays:
Assay in all cases: NCI-60 cell line screen, 48 h
[1] = tested on: 786-0
[2] = tested on: HL-60
[3] = tested on: IGROV-1
[4] = tested on: K562
[5] = tested on: MOLT-4
[6] = tested on: Malme-3M
[7] = tested on: NCI-H226
[8] = tested on: SF-539
[9] = tested on: SW-620
[10] = tested on: UACC-257
[11] = tested on: UO-31
[12] = tested on: EKVX
[13] = tested on: OVCAR-4
[14] = tested on: OVCAR-5

Measured: GI50

Cc1cn(C2C=CC(=O)C(C)O2)c(=O)[nH]c1=O (stereo not given)
inactive: [1] 18 µM | [2] 14.7 µM | [3] 18 µM | [4] 10.6 µM | [5] 18 µM | [6] 13.2 µM | [7] 19.5 µM | [8] 18.7 µM | [9] 15.1 µM | [10] 14 µM | [11] 14.5 µM

Cc1ccc(S(=O)(=O)OC(c2ccc(Cl)cc2Cl)C2OC(=O)c3ccccc32)cc1 (stereo not given)
inactive: [1] > 100 µM | [12] > 100 µM | [2] 21.4 µM | [3] 97.3 µM | [4] 33.6 µM | [5] 30.2 µM | [6] > 100 µM | [7] 19.7 µM | [13] 47.5 µM | [14] > 100 µM | [8] 73.6 µM | [9] 71.4 µM | [11] 27.4 µM

CCc1ccccc1NC(=O)C(=O)C(C#N)c1c(Cl)cccc1Cl (stereo not given)
inactive: [1] > 100 µM | [12] > 100 µM | [2] > 100 µM | [3] > 100 µM | [4] > 100 µM | [5] > 100 µM | [6] > 100 µM | [7] > 100 µM | [8] > 100 µM | [9] > 100 µM | [10] > 100 µM | [11] > 100 µM

Cc1cc2c(cc1C)[n+]([O-])c(C(=O)C/C(=N/OCCCc1ccccc1)C(=O)Nc1cc(Cl)ccc1Cl)c(C)[n+]2[O-]
inactive: [1] > 100 µM | [12] > 100 µM | [2] > 100 µM | [3] > 100 µM | [4] > 100 µM | [5] 22.9 µM | [6] > 100 µM | [7] > 100 µM | [13] > 100 µM | [14] > 100 µM | [8] > 100 µM | [9] > 100 µM | [10] > 100 µM

CCN1C(=O)N(C)C(O)c2c1nc1ccccn1c2=O (stereo not given)
inactive: [1] 28.5 µM | [12] 21.2 µM | [2] 24.9 µM | [3] 32.7 µM | [4] 34 µM | [5] 32.1 µM | [6] 38.6 µM | [7] 60.7 µM | [13] 33 µM | [8] 24.6 µM | [9] 35.9 µM | [10] 40.1 µM | [11] 47.6 µM

C/C(CC(=O)Nc1ccc(C)cc1)=N\NC(N)=S
inactive: [1] > 100 µM | [12] > 100 µM | [2] > 100 µM | [3] > 100 µM | [4] 64.4 µM | [5] > 100 µM | [6] > 100 µM | [7] > 100 µM | [14] > 100 µM | [8] > 100 µM | [9] > 100 µM | [10] > 100 µM | [11] > 100 µM

CCOC(=O)C1=C(C)N2CCOC2(C)C(C(=O)OC)C1c1cccc(Cl)c1 (stereo not given)
inactive: [1] > 100 µM | [12] > 100 µM | [2] 56.4 µM | [3] > 100 µM | [4] 81.5 µM | [6] > 100 µM | [14] > 100 µM | [8] > 100 µM | [9] > 100 µM | [10] > 100 µM | [11] > 100 µM

CCOC(=O)/C(C#N)=C(O)/C(=C/c1ccccc1Cl)NC(=O)c1ccccc1
inactive: [1] > 100 µM | [12] > 100 µM | [2] > 100 µM | [3] > 100 µM | [4] 88.1 µM | [5] > 100 µM | [6] > 100 µM | [7] > 100 µM | [13] > 100 µM | [14] > 100 µM | [8] > 100 µM | [9] 18.8 µM | [10] > 100 µM | [11] > 100 µM

Cn1cccc1/C=C/c1cc(Br)c(/C=C/c2cccn2C)cc1Br
inactive: [1] 6.12 µM | [12] 11.1 µM | [2] 13.6 µM | [3] 15.8 µM | [4] 16.7 µM | [5] 11.6 µM | [6] 10.4 µM | [7] 12.3 µM | [13] 5.4 µM | [14] 16.8 µM | [8] 14.6 µM | [9] 20.9 µM | [10] 30.6 µM | [11] 15.2 µM

CN(C)CCC(=O)c1ccccc1
inactive: [1] 20 µM | [12] > 55.6 µM | [2] 11.3 µM | [3] > 58.5 µM | [4] 27.6 µM | [5] 21.5 µM | [6] 16.1 µM | [7] > 58.7 µM | [13] 46.7 µM | [14] > 43.7 µM | [8] > 58.1 µM | [9] 16.8 µM | [10] 37.8 µM | [11] > 56.9 µM

N#CCc1c(-c2ccccc2)n(S(=O)(=O)c2ccccc2)c2ccccc12
inactive: [1] > 100 µM | [2] > 100 µM | [3] > 100 µM | [4] 46.9 µM | [5] 41.3 µM | [6] > 100 µM | [7] > 100 µM | [13] 37.3 µM | [14] > 100 µM | [8] > 100 µM | [9] > 100 µM | [10] > 100 µM | [11] 14.8 µM

Cc1ccc(SSCCCCS(=O)O)cc1
inactive: [1] 32 µM | [12] 18.5 µM | [2] 3.89 µM | [3] 2.91 µM | [4] 24.3 µM | [5] > 100 µM | [6] 19.2 µM | [13] 15.8 µM | [14] 45.4 µM | [8] 15 µM | [9] 17.5 µM | [10] 18.5 µM | [11] 10.6 µM

Cc1cc(Br)ccc1/N=N/c1c(C)nn(-c2ccccc2)c1-c1ccccc1
inactive: [1] 58.3 µM | [12] > 100 µM | [2] 5.05 µM | [3] 93.5 µM | [4] 17 µM | [5] > 100 µM | [6] > 100 µM | [13] > 100 µM | [14] 53.7 µM | [8] 92.3 µM | [9] 81.5 µM | [10] 49.3 µM | [11] > 100 µM

O=C1c2c(c3c4ccccc4n4c3c3c2c2ccccc2n3C/C=C\C4)C(=O)N1Cc1ccccc1
inactive: [1] > 100 µM | [12] > 100 µM | [2] > 100 µM | [3] > 100 µM | [4] > 100 µM | [5] > 100 µM | [6] > 100 µM | [7] > 100 µM | [14] > 100 µM | [8] > 100 µM | [9] > 100 µM | [10] > 100 µM | [11] > 100 µM

COC1OC(CBr)C(OC(=O)c2ccccc2)C(OS(=O)(=O)c2ccc(C)cc2)C1Br (stereo not given)
inactive: [1] > 100 µM | [12] > 100 µM | [2] > 100 µM | [3] > 10 µM | [4] > 100 µM | [5] > 100 µM | [6] > 100 µM | [13] > 100 µM | [8] > 100 µM | [9] > 100 µM | [10] > 100 µM | [11] > 100 µM

O=C(O)C[C@H]1CCCCC12CCOC2=O (stereo not given in full)
inactive: [1] > 100 µM | [12] > 100 µM | [2] > 100 µM | [3] > 100 µM | [4] > 100 µM | [5] > 100 µM | [7] > 100 µM | [13] > 100 µM | [14] > 100 µM | [8] > 100 µM | [9] > 100 µM | [10] > 100 µM | [11] > 100 µM

Nc1nc(O)c2nc(N)n(Cc3ccccc3)c2n1
inactive: [1] > 100 µM | [12] > 100 µM | [2] > 100 µM | [3] > 100 µM | [4] > 100 µM | [5] > 100 µM | [6] > 100 µM | [13] > 100 µM | [14] > 100 µM | [9] > 100 µM | [10] > 100 µM | [11] > 100 µM

CCCCCCCCCCCCCCCCc1c(O)nc(NN)nc1C(=O)OC
inactive: [1] > 50 µM | [12] > 50 µM | [2] > 50 µM | [3] > 50 µM | [4] > 50 µM | [5] > 50 µM | [6] > 50 µM | [13] > 50 µM | [14] > 50 µM | [8] > 50 µM | [9] > 50 µM | [10] > 50 µM | [11] > 50 µM

[N-]=[N+]=NC1(Cc2ccccc2)C(=O)c2cccc3c2N(CCC3)C1=O (stereo not given)
inactive: [1] > 100 µM | [2] > 100 µM | [3] > 100 µM | [4] > 100 µM | [5] > 100 µM | [6] > 100 µM | [7] > 100 µM | [13] > 100 µM | [14] > 100 µM | [8] > 100 µM | [9] > 100 µM | [10] > 100 µM | [11] > 100 µM

O=C1C2C3C=C4c5ccccc5N(c5ccccc5)C4(C2C(=O)N1c1ccccc1)C1C(=O)N(c2ccccc2)C(=O)C31 (stereo not given)
inactive: [1] > 100 µM | [2] > 100 µM | [3] > 10 µM | [4] > 100 µM | [5] 3.3 µM | [6] 7.67 µM | [14] > 100 µM | [9] > 100 µM | [10] 42.8 µM | [11] > 100 µM

CCCCC(/C=N/NC(=N)N)CC.Cc1cc(O)c(C(C)C)cc1S(=O)(=O)O
inactive: [1] > 100 µM | [12] 30.8 µM | [2] 8.85 µM | [3] 92.9 µM | [4] 26.5 µM | [5] 36.1 µM | [6] 43.9 µM | [7] 18.2 µM | [8] 87.5 µM | [9] 27 µM | [10] 41.3 µM | [11] 59.8 µM
